Measurements published in patent US20260069641A1, “GRAM-NEGATIVE BACTERIA FOR USE IN THE PREVENTION AND TREATMENT OF DISEASE IN POULTRY” (priority 2024, published 2026).

Tested on: Eimeria acervulina, Eimeria maxima, and Eimeria tenella
Experiment: Second study: floor-pen broilers, cocci-challenge plus built-up litter, dried bacterial biomass in feed, 28 days
Type: in vivo, broiler chickens
Conditions: column F of the chart

CC[C@@]1([C@@H]2O[C@@H]([C@H]3O[C@@](O)(CO)[C@H](C)C[C@@H]3C)C[C@@H]2C)CC[C@H]([C@]2(C)CC[C@]3(C[C@H](O)[C@@H](C)[C@@H]([C@@H](C)[C@@H](OC)[C@H](C)C(=O)O)O3)O2)O1 [Coban, Monensin]
Lesion Score Ileum Day 28: 0.325
